The subject of assay [1] is MV4-11. The class given is cell-based. The note with it: Homo sapiens, 72 h, Cell Titer Glo. For orientation: ATP-based viability assays read luminescence as a measure of living cells.
The next assay has as its system MOLM-13. The class given is cell-based. The note with it: Homo sapiens, 72 h, Cell Titer Glo.
Assay [2] has as its system CBFA2T3-GLIS2/JAK2V617F-induced AMKL model. As to the kind of experiment: In vivo efficacy, survival. As to conditions: CBFA2T3-GLIS2/JAK2V617F-Luc+ quaternary transplants, i.p. Details: species or system mice.
In the next assay the test system is ML-2. The class given is cell-based. As to conditions: Homo sapiens, 72 h, Cell Titer Glo.
Assay [3] concerns panel of 8 AML cell lines. The assay is described as follows: Secondary dose-response HTS, whole panel. The note with it: Homo sapiens; all cell lines; read-out: potency across subtypes in the secondary HTS. The class given is cell-based, human.
Assay [4] concerns AMKL patient-derived xenograft. The assay is described as follows: In vivo efficacy, survival. Also noted: species or system NSG-SGM3 mice. The note with it: AMKL PDX, 50 mg kg−1 q4d, i.p.
For assay [5], the system named is MV4-11. The assay is described as follows: cells. As to conditions: Homo sapiens, MV4-11, 72 h, read-out: MV4-11. Also noted: species or system AML cell lines (8); Secondary HTS, 10-point dose-response in triplicate, Cell Titer Glo viability, four-parameter fit EC50.
The next assay deals with U937. The class given is cell-based. The note with it: Homo sapiens, U-937; 72 h, Cell Titer Glo.
Another assay concerns ML2. The assay is described as follows: Secondary dose-response HTS, Cell Titer Glo. The class given is cell-based, human. As to conditions: Homo sapiens, ML-2.
The test system of the next assay is CMS. The class given is cell-based. As to conditions: Homo sapiens; 72 h, Cell Titer Glo; read-out: IC50 CMS.
Another assay relates to CHRF288-11. The class given is cell-based. As to conditions: Homo sapiens; 72 h, Cell Titer Glo; read-out: IC50 CHRF288-11.

Where two headings read alike, the source gives them in different places.

What is called IC50 is the concentration at which inhibition is half-maximal. In the case of `Nc1ccn([C@@H]2O[C@H](CO)[C@@H](O)C2(F)F)c(=O)n1` [Gemcitabine, gemcitabine], the IC50 was found to be 3.2 nM in the assay on MV4-11 [1]; 0.7 nM with MOLM-13; 0.6 nM in the assay on ML-2; 31 nM in the assay on U937; 1 nM in the assay with CMS; 0.4 nM with CHRF288-11. Also, the Median survival in assay [2] (3 mg kg−1 daily x 5 days) is 91 days; in assay [2] (120 mg kg−1 q3d), more than 125 days; in [4], 76 days. In addition, the EC50 in assay [3] was less than 65 nM; with MV4-11 [5], 2.1 nM; in the assay with ML2 (secondary HTS, 72 h, average of triplicate, read-out: EC50 ML2) it was 2 nM; in the assay on ML2 (secondary high-throughput screen, read-out: average effective concentration, ML-2), 1.7 nM.

For the origin of these results see paper PMC6522510 (Nature Communications, 2019).
